Converted amounts (≈) assume the structure as drawn.
Legend:
[1] = test system: Candida albicans; assay: Compound was evaluated for antifungal activity as minimum cell growth inhibition against Candida albicans - 2005; assay type: functional
[2] = test system: Candida albicans; assay: Compound was evaluated for antifungal activity as minimum cell growth inhibition against Candida albicans - 4711E; assay type: functional
[3] = test system: Kluyveromyces marxianus; assay: Compound was evaluated for antifungal activity as minimum cell growth inhibition against Candida pseudotropicalis -2371; assay type: functional, candida pseudotrop
[4] = test system: Nakaseomyces glabratus; assay: Compound was evaluated for antifungal activity as minimum cell growth inhibition against Candida glabrata - 2375E; assay type: functional
[5] = test system: Cryptococcus neoformans; assay: Compound was evaluated for antifungal activity as minimum cell growth inhibition against Cryptococcus neoformans - 2867; assay type: functional
[6] = test system: Candida tropicalis; assay: Compound was evaluated for antifungal activity as minimum cell growth inhibition against Candida tropicalis - 2808; assay type: functional

Row | Structure (SMILES) | MIC [1] | MIC [2] | MIC [3] | MIC [4] | MIC [5] | MIC [6]
1 | CO[C@H]1[C@@H]2O[C@@H]2[C@H](OCC23C[C@@H]4[C@H](C)CC[C@H]4C4(C=O)CC2C=C(C(C)C)C34C(=O)O)O[C@@H]1C (some centres not stated) | 0.06 µg/mL (≈ 0.126 µM) | 0.25 µg/mL (≈ 0.527 µM) | 0.03 µg/mL (≈ 0.0632 µM) | 16 µg/mL (≈ 33.7 µM) | 8 µg/mL (≈ 16.9 µM) | 0.25 µg/mL (≈ 0.527 µM)
2 | C/C=C/C=C(/O[C@H]1[C@H](O)[C@H](OCC23C[C@@H]4[C@H](C)CC[C@H]4C4(C=O)CC2C=C(C(C)C)C34C(=O)O)O[C@H](C)[C@H]1O)C(=O)C(CC)CC (some centres not stated) | 0.015 µg/mL (≈ 0.0233 µM) | 0.25 µg/mL (≈ 0.389 µM) | 0.03 µg/mL (≈ 0.0467 µM) | > 125 µg/mL | 0.25 µg/mL (≈ 0.389 µM) | 0.06 µg/mL (≈ 0.0933 µM)
3 | CO[C@H]1[C@@H]2O[C@@H]2[C@H](OCC23C[C@@H]4[C@H](C)CC[C@H]4C4(C=O)CC2C=C(C(C)C)C34C(=O)O)O[C@@H]1CO (some centres not stated) | 4 µg/mL (≈ 8.15 µM) | 16 µg/mL (≈ 32.6 µM) | 16 µg/mL (≈ 32.6 µM) | > 125 µg/mL | > 125 µg/mL | 31 µg/mL (≈ 63.2 µM)
4 | COC[C@H]1O[C@@H](OCC23C[C@@H]4[C@H](C)CC[C@H]4C4(C=O)CC2C=C(C(C)C)C34C(=O)O)[C@H]2O[C@H]2[C@@H]1OC (some centres not stated) | 0.06 µg/mL (≈ 0.119 µM) | 0.5 µg/mL (≈ 0.991 µM) | 0.25 µg/mL (≈ 0.495 µM) | 62 µg/mL (≈ 123 µM) | 16 µg/mL (≈ 31.7 µM) | 4 µg/mL (≈ 7.93 µM)
5 | CO[C@H]1[C@H]2O[C@H]2[C@H](OCC23C[C@@H]4[C@H](C)CC[C@H]4C4(C=O)CC2C=C(C(C)C)C34C(=O)O)O[C@@H]1C (some centres not stated) | 0.25 µg/mL (≈ 0.527 µM) |  | 0.12 µg/mL (≈ 0.253 µM) | 125 µg/mL (≈ 263 µM) | > 125 µg/mL | 4 µg/mL (≈ 8.43 µM)
6 | CO[C@H]1[C@H]2O[C@H]2[C@@H](OCC23C[C@@H]4[C@H](C)CC[C@H]4C4(C=O)CC2C=C(C(C)C)C34C(=O)O)O[C@@H]1C (some centres not stated) | 4 µg/mL (≈ 8.43 µM) | 16 µg/mL (≈ 33.7 µM) | 2 µg/mL (≈ 4.21 µM) | 31 µg/mL (≈ 65.3 µM) | 125 µg/mL (≈ 263 µM) | > 125 µg/mL
7 | CO[C@H]1[C@@H]2O[C@@H]2[C@@H](OCC23C[C@@H]4[C@H](C)CC[C@H]4C4(C=O)CC2C=C(C(C)C)C34C(=O)O)O[C@@H]1C (some centres not stated) | 4 µg/mL (≈ 8.43 µM) | 8 µg/mL (≈ 16.9 µM) | 1 µg/mL (≈ 2.11 µM) | 31 µg/mL (≈ 65.3 µM) | > 125 µg/mL | 31 µg/mL (≈ 65.3 µM)
8 | CO[C@H]1[C@@H]2S[C@@H]2[C@H](OCC23C[C@@H]4[C@H](C)CC[C@H]4C4(C=O)CC2C=C(C(C)C)C34C(=O)O)O[C@@H]1C (some centres not stated) | 0.03 µg/mL (≈ 0.0611 µM) | 0.12 µg/mL (≈ 0.245 µM) | 0.008 µg/mL (≈ 0.0163 µM) | 16 µg/mL (≈ 32.6 µM) | > 125 µg/mL | 0.5 µg/mL (≈ 1.02 µM)
